Results: EP0089926A2, “Pharmaceutical preparations of tetracycles containing nitrogen, and compounds of this type” (CIBA-GEIGY AG, priority 1982, dated 1983)

Tested on: Mäuse
Assay: Step-down platform passive avoidance test, direct measurement of improvement of memory performance
Format: in vivo
Settings: male mice, 1 mg/kg i.p. within 10 seconds after foot shock, time on platform 24 hours later versus solvent controls
Excerpt: Zur unmittelbaren […]: • Die Testvorrichtung besteht aus […] normal beleuchteten Box (50 […]äbe (6 mm Durchmesser) in einem Abstand von jeweils 13 mm angeordnet sind. In […] Gitterrostes ist eine hölzerne Plattform (10 mm Höhe, 67 mm Durchmesser) angebracht, welche von […] hoch, 68 mm […]. Zur Durchführung des Trainings werden Gruppen von jeweils 30 männlichen Mäusen (20 - 25 g) verwendet, indem jeweils ein Tier auf die von […] die […] und die Zeitdauer gemessen wird, welche das Tier zum Hinabsteigen und Berühren des Gitterrostes mit allen 4 Pfoten benö[…] von 10 Sekunden nach Verabreichung des Fussschocks werden die Testsubstanzen in Dosen von 0,1 mg/kg, 1 mg/kg und 10 mg/kg (für jede Dosis werden 30 Mäuse verwendet) je nach Löslichkeit als Lösung in physiologischer NaCl-Lösung oder einer 0,5%-igen Lösung von Methylcellulose in Wasser intraperitoneal verabreicht.

Row | Compound | Verbesserung der Gedächtnisleistung
1 | CCC1(CCC(=O)OC)CCN2CCc3c([nH]c4ccccc34)C21 (racemic) [cis-1-Aethyl-2,3,5,6,11,11b-hexahydro-1H-indolizino[8,7-b]indol-1-propionsäuremethylester] | eine Verbesserung der Gedächtnisleistung
2 | CCC1(CC(O)C(=O)OC)CCN2CCc3c([nH]c4ccccc34)C21 (racemic) [erythro-cis-a-Hydroxy-1-äthyl-2,3,5,6,11,11b-hexahydro-1H-indolizino[8,7-b]indol-1-propionsäuremethylester] | eine Verbesserung der Gedächtnisleistung
